# Molecular target: Neuronal acetylcholine receptor subunit alpha-6 (Gallus gallus, UniProt P49581)
# Sequence (P49581 whole entry): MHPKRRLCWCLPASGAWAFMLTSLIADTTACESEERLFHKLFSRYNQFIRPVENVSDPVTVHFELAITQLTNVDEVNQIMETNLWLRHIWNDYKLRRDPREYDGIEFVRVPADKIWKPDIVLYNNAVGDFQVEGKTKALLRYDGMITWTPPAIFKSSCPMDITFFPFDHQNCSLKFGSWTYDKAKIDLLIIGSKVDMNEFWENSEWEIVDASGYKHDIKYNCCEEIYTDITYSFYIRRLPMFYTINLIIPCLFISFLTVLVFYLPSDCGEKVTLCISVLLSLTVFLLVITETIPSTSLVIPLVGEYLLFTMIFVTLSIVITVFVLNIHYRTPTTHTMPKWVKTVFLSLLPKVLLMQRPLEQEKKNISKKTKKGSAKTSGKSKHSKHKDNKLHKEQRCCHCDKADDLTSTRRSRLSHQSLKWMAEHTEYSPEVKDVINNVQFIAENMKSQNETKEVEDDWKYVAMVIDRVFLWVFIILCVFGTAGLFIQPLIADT
row,Compound,Ki [µM]
1,"CN1CCC[C@H]1c1cccnc1 [(R,S)-nicotine]",0.02
2,CC[N+](CC)(CC)CCOc1ccc(C=Cc2ccccc2)cc1 [CAS_17360],4.52
3,COc1cc2c3cc1Oc1cc(ccc1O)CC1c4c(cc(OC)c(O)c4Oc4ccc(cc4)CC3N(C)CC2)CC[N+]1(C)C (configuration not stated) [CAS_64645],7.7
4,C[N+](C)(C)CCCCCCCCCC[N+](C)(C)C [Decamethonium Iodide],> 10
5,CC(C)C[C@@H]1NC(=O)[C@H](CC(N)=O)NC(=O)[C@H](CO)NC(=O)[C@H](Cc2cnc[nH]2)NC(=O)[C@H](CCC(=O)O)NC(=O)[C@H](CC(C)C)NC(=O)[C@H](Cc2cnc[nH]2)NC(=O)[C@@H]2CSSC[C@H](NC(=O)CN)C(=O)N[C@@H](CSSC[C@@H](C(N)=O)NC1=O)C(=O)N[C@@H](CO)C(=O)N[C@@H](CC(N)=O)C(=O)N1CCC[C@H]1C(=O)N[C@@H](C(C)C)C(=O)N2 [Gly-L-Cys(1)-L-Cys(2)-L-Ser-L-Asn-L-Pro-L-Val-L-Cys(1)-L-His-L-Leu-L-Glu-L-His-L-Ser-L-Asn-L-Leu-L-Cys(2)-NH2],0.066
6,C[N+](C)(C)CCCCCC[N+](C)(C)C [Hexamethoniumdibromide],> 10
7,COC1CC=C2CCN3CCC4=C(CC(=O)OC4)C23C1 (configuration not stated) [NSC_31762],2.8
